Laboratory results as given in ChEMBL document CHEMBL1153037, “Synthesis and structure-activity relationship studies of cytotoxic anhydrovinblastine amide derivatives” (J Nat Prod, 2009).
Structures can show the parent of a compound that is named as a salt.

How the values were obtained:
A549 = assay: Cytotoxicity against human A549 cells by sulforhodamine B assay; format: functional, cell-based
HeLa = assay: Cytotoxicity against human HeLa cells by sulforhodamine B assay; format: functional, cell-based
CCRF S-180 [1] = assay: Antitumor activity against mouse S180 cells xenografted in Kunming mouse at 10 mg/kg, iv administered on day 1 and 4; format: functional; conditions: for inhibition in vivo at 10 mg/kg: Mus musculus
CCRF S-180 [2] = assay: Antitumor activity against mouse S180 cells xenografted in Kunming mouse at 20 mg/kg, iv administered as single dose on day 1; format: functional; conditions: CCRF S-180, 24 h
CCRF S-180 [3] = assay: Toxicity against mouse S180 cells xenografted in Kunming mouse at 10 mg/kg, iv administered on day 1 and 4; format: functional, organism-based; parameters: dose 10 mg/kg

Compound | IC50 (A549; Homo sapiens, A549) [nM] | IC50 (HeLa) [nM] | other results
CCC1=C[C@@H]2CN(CCc3c([nH]c4ccccc34)[C@@](C(=O)OC)(c3cc4c(cc3OC)N(C)[C@H]3[C@@](O)(CNC(=O)c5ccccc5)[C@H](OC(C)=O)[C@]5(CC)C=CCN6CC[C@]43[C@@H]65)C2)C1 | 27 | 26 | 
CCC1=C[C@@H]2CN(CCc3c([nH]c4ccccc34)[C@@](C(=O)OC)(c3cc4c(cc3OC)N(C)[C@H]3[C@@](O)(CNC(=O)c5ccc(F)cc5)[C@H](OC(C)=O)[C@]5(CC)C=CCN6CC[C@]43[C@@H]65)C2)C1 | 20 | 25 | 
CCC1=C[C@@H]2CN(CCc3c([nH]c4ccccc34)[C@@](C(=O)OC)(c3cc4c(cc3OC)N(C)[C@H]3[C@@](O)(CNC(=O)C5CCC5)[C@H](OC(C)=O)[C@]5(CC)C=CCN6CC[C@]43[C@@H]65)C2)C1 | 34 | 68 | 
CCC1=C[C@@H]2CN(CCc3c([nH]c4ccccc34)[C@@](C(=O)OC)(c3cc4c(cc3OC)N(C)[C@H]3[C@@](O)(CNC(=O)C(C)(C)C)[C@H](OC(C)=O)[C@]5(CC)C=CCN6CC[C@]43[C@@H]65)C2)C1 | 95 | 61 | 
CCC1=C[C@@H]2CN(CCc3c([nH]c4ccccc34)[C@@](C(=O)OC)(c3cc4c(cc3OC)N(C)[C@H]3[C@@](O)(CNC(=O)CC(C)(C)C)[C@H](OC(C)=O)[C@]5(CC)C=CCN6CC[C@]43[C@@H]65)C2)C1 | 115 | 93 | 
CCC1=C[C@@H]2CN(CCc3c([nH]c4ccccc34)[C@@](C(=O)OC)(c3cc4c(cc3OC)N(C)[C@H]3[C@@](O)(CNC(=O)C5CC5)[C@H](OC(C)=O)[C@]5(CC)C=CCN6CC[C@]43[C@@H]65)C2)C1 | 26 | 35 | inhibition in vivo at 10 mg/kg (CCRF S-180 [1]; CCRF S-180, 24 h): 81.3%; inhibition in vivo at 20 mg/kg (CCRF S-180 [2]): 88.8%
CCC1=C[C@@H]2CN(CCc3c([nH]c4ccccc34)[C@@](C(=O)OC)(c3cc4c(cc3OC)N(C)[C@H]3[C@@](O)(CNC(=O)Cc5ccccc5)[C@H](OC(C)=O)[C@]5(CC)C=CCN6CC[C@]43[C@@H]65)C2)C1 | 39 | 78 | 
CCC1=C[C@@H]2CN(CCc3c([nH]c4ccccc34)[C@@](C(=O)OC)(c3cc4c(cc3OC)N(C)[C@H]3[C@@](O)(CNC(=O)c5cccc(Cl)c5)[C@H](OC(C)=O)[C@]5(CC)C=CCN6CC[C@]43[C@@H]65)C2)C1 | 26 | 67 | 
CCC1=C[C@@H]2CN(CCc3c([nH]c4ccccc34)[C@@](C(=O)OC)(c3cc4c(cc3OC)N(C)[C@H]3[C@@](O)(CNC(=O)c5ccc(Cl)cc5)[C@H](OC(C)=O)[C@]5(CC)C=CCN6CC[C@]43[C@@H]65)C2)C1 | 25 | 47 | 
CCC1=C[C@@H]2CN(C1)Cc1c([nH]c3ccccc13)[C@@](C(=O)OC)(c1cc3c(cc1OC)N(C)[C@H]1[C@@](O)(C(=O)OC)[C@H](OC(C)=O)[C@]4(CC)C=CCN5CC[C@]31[C@@H]54)C2 |  |  | Activity (CCRF S-180 [3]): Not toxic
CCCC(=O)NC[C@@]1(O)[C@H](OC(C)=O)[C@]2(CC)C=CCN3CC[C@@]4(c5cc([C@@]6(C(=O)OC)C[C@@H]7C=C(CC)CN(CCc8c6[nH]c6ccccc86)C7)c(OC)cc5N(C)[C@@H]14)[C@@H]32 | 96 | 97 | 
CCC1=C[C@@H]2CN(CCc3c([nH]c4ccccc34)[C@@](C(=O)OC)(c3cc4c(cc3OC)N(C)[C@H]3[C@@](O)(CNC(=O)CC(C)C)[C@H](OC(C)=O)[C@]5(CC)C=CCN6CC[C@]43[C@@H]65)C2)C1 | 152 | 85 | 
CCC1=C[C@@H]2CN(CCc3c([nH]c4ccccc34)[C@@](C(=O)OC)(c3cc4c(cc3OC)N(C)[C@H]3[C@@](O)(CNC(=O)c5ccc([N+](=O)[O-])cc5)[C@H](OC(C)=O)[C@]5(CC)C=CCN6CC[C@]43[C@@H]65)C2)C1 | 33 | 23 | 
CCC1=C[C@@H]2CN(CCc3c([nH]c4ccccc34)[C@@](C(=O)OC)(c3cc4c(cc3OC)N(C)[C@H]3[C@@](O)(CNC(=O)c5ccc6c(c5)OCO6)[C@H](OC(C)=O)[C@]5(CC)C=CCN6CC[C@]43[C@@H]65)C2)C1 | 8 | 33 | inhibition in vivo at 10 mg/kg (CCRF S-180 [1]; CCRF S-180, 24 h): 58.1%; inhibition in vivo at 20 mg/kg (CCRF S-180 [2]): 66.3%; Activity (CCRF S-180 [3]): Not toxic
CCC1=C[C@@H]2CN(CCc3c([nH]c4ccccc34)[C@@](C(=O)OC)(c3cc4c(cc3OC)N(C)[C@H]3[C@@](O)(CNC(=O)c5ccncc5)[C@H](OC(C)=O)[C@]5(CC)C=CCN6CC[C@]43[C@@H]65)C2)C1 | 27 | 24 | 
CCC1=C[C@@H]2CN(C1)Cc1c([nH]c3ccccc13)[C@@](C(=O)OC)(c1cc3c(cc1OC)N(C)[C@H]1[C@@](O)(C(=O)OC)[C@H](OC(C)=O)[C@]4(CC)C=CCN5CC[C@]31[C@@H]54)C2 [VINORELBINE] |  |  | IC50 (A549; a549): 30 nM; inhibition (INH) (CCRF S-180 [1]): 69.4%
CCC1=C[C@@H]2CN(CCc3c([nH]c4ccccc34)[C@@](C(=O)OC)(c3cc4c(cc3OC)N(C)[C@H]3[C@@](O)(CNC(=O)c5ccc(OC)cc5)[C@H](OC(C)=O)[C@]5(CC)C=CCN6CC[C@]43[C@@H]65)C2)C1 | 30 | 139 | 
CCC(=O)NC[C@@]1(O)[C@H](OC(C)=O)[C@]2(CC)C=CCN3CC[C@@]4(c5cc([C@@]6(C(=O)OC)C[C@@H]7C=C(CC)CN(CCc8c6[nH]c6ccccc86)C7)c(OC)cc5N(C)[C@@H]14)[C@@H]32 | 43 | 57 | inhibition in vivo at 10 mg/kg (CCRF S-180 [1]; CCRF S-180, 24 h): 84.4%; inhibition in vivo at 20 mg/kg (CCRF S-180 [2]): 90%; Activity (CCRF S-180 [3]): Not toxic
CCC1=C[C@@H]2CN(CCc3c([nH]c4ccccc34)[C@@](C(=O)OC)(c3cc4c(cc3OC)N(C)[C@H]3[C@@](O)(CNC(=O)C(C)C)[C@H](OC(C)=O)[C@]5(CC)C=CCN6CC[C@]43[C@@H]65)C2)C1 | 101 | 132 | 
CCC1=C[C@@H]2CN(CCc3c([nH]c4ccccc34)[C@@](C(=O)OC)(c3cc4c(cc3OC)N(C)[C@H]3[C@@](O)(CNC(=O)c5ccccc5Cl)[C@H](OC(C)=O)[C@]5(CC)C=CCN6CC[C@]43[C@@H]65)C2)C1 | 24 | 89 | 
CCC1=C[C@@H]2CN(CCc3c([nH]c4ccccc34)[C@@](C(=O)OC)(c3cc4c(cc3OC)N(C)[C@H]3[C@@](O)(CNC(C)=O)[C@H](OC(C)=O)[C@]5(CC)C=CCN6CC[C@]43[C@@H]65)C2)C1 | 22 | 444 | 
CCC1=C[C@@H]2CN(CCc3c([nH]c4ccccc34)[C@@](C(=O)OC)(c3cc4c(cc3OC)N(C)[C@H]3[C@@](O)(CNC(=O)c5ccccc5OC)[C@H](OC(C)=O)[C@]5(CC)C=CCN6CC[C@]43[C@@H]65)C2)C1 | 10 | 21 | 
CCC1=C[C@@H]2CN(C1)Cc1c([nH]c3ccccc13)[C@@](C(=O)OC)(c1cc3c(cc1OC)N(C)[C@H]1[C@@](O)(C(=O)OC)[C@H](OC(C)=O)[C@]4(CC)C=CCN5CC[C@]31[C@@H]54)C2 [VINORELBINE TARTRATE] |  |  | inhibition in vivo at 10 mg/kg (CCRF S-180 [1]; CCRF S-180, iv, 24 h): 62.5%
